Laboratory results from patent US9302996B2, “Continuous arycyclic compound” (MITSUBISHI TANABE PHARMA CORPORATION, priority 2010, dated 2016).
Read-outs that look alike come from different tables or passages of the source. Marks after values point to notes of the source that are not given here.

Assays:
Assay type in all cases: in vivo
[1] = system: KK-Ay mice; test: Weight gain-inhibiting action, hypoglycemic effect, insulin in blood plasma lowering action in KK-Ay mice; conditions: male KK-Ay mice, high fat diet, 2 weeks; for inhibition in vivo at 30 mg/kg: Mus musculus, 336 h, 30 mg/kg/day oral
Protocol: To 8 weeks-old male KK-Ay mice were provided high fat diet (Oriental Yeast Co., Ltd, 60 cal % fat), and Test compound suspended in 0.2% carboxymethylcellulose solution was orally administered once a day. Oral administration was continued for 2 weeks, and a weight gain-inhibiting rate of the Test compound was calculated by using a weight gain amount of the solvent control group during the test period as 100%. After final administration, the mice were fasted overnight, and blood was collected from tail vein. Measurement of a blood-sugar level was carried out by using glucose Cα Test Wako (Wako Pure Chemical Industries, Ltd.), and measurement of insulin in blood plasma was carried out by using a mouse insulin measurement kit (Morinaga Institute of Biological Science, Inc.).

[2] = system: ICR mice; test: Triglyceride (TG) in blood plasma increase-inhibiting action due to lipid administration; conditions: Mus musculus; male ICR mice, 5 mg/kg oral, lipid (Intralipos 20%) after 30 minutes, plasma TG 2 hours after lipid; read-out: Inhibiting rate of TG-increase in blood plasma (5 mg/kg)
Protocol: 6 to 9 weeks-old male ICR mice were fasted overnight, and Test compound suspended in 0.2% carboxymethyl cellulose solution was orally administered to the mice. A lipid (Intralipos 20%, OTSUKA PHARMACEUTICAL CO., LTD., 10 mL/kg) was orally administered after 30 minutes. Blood was collected from tail vein immediately before the lipid administration, and after 2 hours from the same to obtain blood plasma. Measurement of TG in blood plasma was carried out by using a triglyceride E Test Wako (Wako Pure Chemical Industries, Ltd.), and an increased value of TG in blood plasma by administration of the lipid was calculated. An increased value of TG in blood plasma in a solvent control group was used as a control, and an inhibiting rate in increase of TG in blood plasma in the Test compound administered group was calculated.

[3] = system: C57BL/6J mice; test: Antifeeding activity (high fat diet intake up to 4 hours); conditions: Mus musculus, male C57BL/6J mice, 5 mg/kg oral, food ingested up to 4 hours, read-out: Antifeeding rate (5 mg/kg)
Protocol: 7 to 10 weeks-old male C57BL/6J mice were fasted overnight, and the test compound suspended in 0.2% carboxymethylcellulose solution was orally administered. Immediately after the administration, high fat diet (Oriental Yeast Co., Ltd, 60 cal % fat) was provided and freely fed. An amount of food ingested up to 4 hours was measured, and a lowering rate (an antifeeding rate) of the amount of food ingested in the Test compound administered group was calculated as compared to that of the solvent control group as a control.

[4] = read-out: Hypoglycemic action (30 mg/kg/day)
[5] = read-out: Insulin in blood plasma-lowering action (30 mg/kg/day)
[6] = administration dose of 1 mg/kg/day oral

## CC(C)(COc1ccc(-c2ccc(-c3ncc(C(F)(F)F)[nH]3)cn2)cc1)C(=O)O [Example 1-3), 2,2-dimethyl-3-(4-{5-[5-(trifluoromethyl)-1H-imidazol-2-yl]pyridin-2-yl}phenoxy)propanoic acid]
[1]; [4]
  inhibition in vivo at 30 mg/kg: 43%
[1]; [5]
  inhibition in vivo at 30 mg/kg: 58%

## CC(C)(COc1ccc(-c2ccc(-c3ncc(C(C)(C)C(F)(F)F)[nH]3)cn2)cc1)C(=O)O [Example 2-2), 2,2-dimethyl-3-(4-{5-[5-(2,2,2-trifluoro-1,1-dimethylethyl)-1H-imidazol-2-yl]pyridin-2-yl}phenoxy)propanoic acid]
[2]
  inhibition in vivo at 5 mg/kg: 76%
[3]
  inhibition in vivo at 5 mg/kg: 64%

## CC(C)(COc1ccc(-c2ccc(-c3ncc(C(C)(C)C(F)(F)F)[nH]3)cn2)cc1)C(=O)O [Example 2-3), sodium 2,2-dimethyl-3-(4-{5-[5-(2,2,2-trifluoro-1,1-dimethylethyl)-1H-imidazol-2-yl]pyridin-2-yl}phenoxy)propanoate]
[1]; [4]
  inhibition in vivo at 30 mg/kg: 64%
[1]; [5]
  inhibition in vivo at 30 mg/kg: 62%
[1]; read-out: Weight gain-inhibiting action (30 mg/kg/day)
  inhibition in vivo at 30 mg/kg: 53%

## Cc1cc(-c2ccc(-c3ncc(C(F)(F)F)[nH]3)cn2)ccc1OCC(C)(C)C(=O)O [Example 8-2), 2,2-dimethyl-3-[2-methyl-4-[5-[5-(trifluoromethyl)-1H-imidazol-2-yl]-2-pyridyl]phenoxy]propanoic acid]
[2]
  inhibition in vivo at 5 mg/kg: 46%
[3]
  inhibition in vivo at 5 mg/kg: 57%

## Cc1cc(OCC(C)(C)C(=O)O)ccc1-c1ccc(-c2ncc(C(F)(F)F)[nH]2)cn1 [Example 9]
[2]
  inhibition in vivo at 5 mg/kg: 75%
[3]
  inhibition in vivo at 5 mg/kg: 76%

## Cc1nc(OCC(C)(C)C(=O)O)ccc1-c1ccc(-c2ncc(C(F)(F)F)[nH]2)cn1 [Example 10]
[2]
  inhibition in vivo at 5 mg/kg: 62%
[3]
  inhibition in vivo at 5 mg/kg: 62%

## O=C(O)CCCOc1ccc(-c2ccc(-c3ncc(C(F)(F)F)[nH]3)cn2)cc1 [Example 11]
[2]
  inhibition in vivo at 5 mg/kg: 31%

## CC(C)(COc1ccc(-c2ccc(-c3ncc(CC(F)F)[nH]3)cn2)cc1)C(=O)O [Example 12]
[2]
  inhibition in vivo at 5 mg/kg: 51%
[3]
  inhibition in vivo at 5 mg/kg: 40%

## CC(C)(COc1ccc(-c2ccc(-c3ncc(C(F)(F)F)[nH]3)cn2)cn1)C(=O)O [Example 13-3), 2,2-dimethyl-3-[[5-[5-[4-(trifluoromethyl)-1H-imidazol-2-yl]-2-pyridyl]-2-pyridyl]oxy]propanoic acid]
[2]
  inhibition in vivo at 5 mg/kg: 51%
[3]
  inhibition in vivo at 5 mg/kg: 60%

## O=C(O)CCCCOc1ccc(-c2ccc(-c3ncc(C(F)(F)F)[nH]3)cn2)cc1 [Example 15]
[2]
  inhibition in vivo at 5 mg/kg: 32%

## O=C(O)C1(COc2ccc(-c3ccc(-c4ncc(C(F)(F)F)[nH]4)nc3)cn2)CCCC1 [Example 16]
[2]
  inhibition in vivo at 5 mg/kg: 74%
[3]
  inhibition in vivo at 5 mg/kg: 75%

## O=C(O)C1(COc2ccc(-c3ccc(-c4ncc(C(F)(F)F)[nH]4)cn3)cn2)CCCC1 [Example 17]
[2]
  inhibition in vivo at 5 mg/kg: 69%
[3]
  inhibition in vivo at 5 mg/kg: 82%

## CC(C)(CCOc1ccc(-c2ccc(-c3ncc(C(F)(F)F)[nH]3)cn2)cc1)C(=O)O [Example 18-2), 2,2-dimethyl-4-[4-[5-[5-(trifluoromethyl)-1H-imidazol-2-yl]-2-pyridin]phenoxy]butanoic acid]
[2]
  inhibition in vivo at 5 mg/kg: 69%
[3]
  inhibition in vivo at 5 mg/kg: 83%

## CCC(CC)(COc1ccc(-c2ccc(-c3ncc(C(F)(F)F)[nH]3)cn2)cc1)C(=O)O [Example 19-3), 2-ethyl-2-[[4-[5-[4-(trifluoromethyl)-1H-imidazol-2-yl]-2-pyridyl]phenoxy]methyl]butanoic acid]
[2]
  inhibition in vivo at 5 mg/kg: 89%
[3]
  inhibition in vivo at 5 mg/kg: 78%

## O=C(O)C1(COc2ccc(-c3ccc(-c4ncc(C(F)(F)F)[nH]4)cn3)cc2)CCCC1 [Example 20]
[2]
  inhibition in vivo at 5 mg/kg: 74%
[3]
  inhibition in vivo at 5 mg/kg: 70%

## O=C(O)C1(COc2ccc(-c3ccc(-c4ncc(C(F)(F)F)[nH]4)cn3)cc2)CCOCC1 [Example 21]
[2]
  inhibition in vivo at 5 mg/kg: 20%

## CC(C)(COc1ccc(-c2ccc(-c3ncc(CCC(F)(F)F)[nH]3)cn2)cc1)C(=O)O [Example 24]
[2]
  inhibition in vivo at 5 mg/kg: 33%

## CC(C)CCc1cnc(-c2ccc(-c3ccc(OCC(C)(C)C(=O)O)cc3)nc2)[nH]1 [Example 25]
[2]
  inhibition in vivo at 5 mg/kg: 54%
[3]
  inhibition in vivo at 5 mg/kg: 81%

## CC(C)(COc1ccc(-c2ccc(-c3ncc(CC4CC4)[nH]3)cn2)cc1)C(=O)O [Example 27]
[2]
  inhibition in vivo at 5 mg/kg: 69%
[3]
  inhibition in vivo at 5 mg/kg: 66%

## CC(C)c1cnc(-c2ccc(-c3ccc(OCC(C)(C)C(=O)O)cc3)nc2)[nH]1 [Example 28]
[2]
  inhibition in vivo at 5 mg/kg: 59%
[3]
  inhibition in vivo at 5 mg/kg: 54%

## CCC(CC)c1cnc(-c2ccc(-c3ccc(OCC(C)(C)C(=O)O)cc3)nc2)[nH]1 [Example 29]
[2]
  inhibition in vivo at 5 mg/kg: 52%
[3]
  inhibition in vivo at 5 mg/kg: 28%

## CC(C)(COc1ccc(-c2ccc(-c3ncc(C4CCC(F)(F)CC4)[nH]3)cn2)cc1)C(=O)O [Example 34]
[2]
  inhibition in vivo at 5 mg/kg: 19%

## Cc1cc(OCC(C)(C)C(=O)O)ncc1-c1ccc(-c2ncc(C3(C(F)(F)F)CCC3)[nH]2)nc1 [Example 46]
[2]
  inhibition in vivo at 5 mg/kg: 13%

## CC(C)(COc1cnc(-c2ccc(-c3ncc(C4(C(F)(F)F)CCC4)[nH]3)cc2)cn1)C(=O)O [Example 48]
[2]
  inhibition in vivo at 5 mg/kg: 23%

## CC(C)(COc1cnc(-c2ccc(-c3ncc(C(C)(C)C(F)(F)F)[nH]3)cc2)cn1)C(=O)O [Example 50]
[2]
  inhibition in vivo at 5 mg/kg: 21%

## Cc1cc(OCC(C)(C)C(=O)O)ncc1-c1ccc(-c2ncc(C3(C(F)(F)F)CCC3)[nH]2)c(F)c1 [Example 52]
[2]
  inhibition in vivo at 5 mg/kg: 26%

## CC(C)(COc1ccc(-c2ccc(-c3ncc(C(C)(C)C(F)(F)F)[nH]3)c(F)c2)cn1)C(=O)O [Example 53]
[2]
  inhibition in vivo at 5 mg/kg: 36%

## CC(C)(COc1ccc(-c2ccc(-c3ncc(C4CCC4)[nH]3)cn2)cc1)C(=O)O [Example 55-2), 3-[4-[5-(5-cyclobutyl-1H-imidazol-2-yl)-2-pyridyl]phenoxy]-2,2-dimethylpropanoic acid]
[3]
  inhibition in vivo at 5 mg/kg: 39%

## CC(C)(COc1ccc(-c2ccc(-c3ncc(C(C)(C)C)[nH]3)cn2)cc1)C(=O)O [Example 57]
[2]
  inhibition in vivo at 5 mg/kg: 43%

## CC(C)(COc1ccc(-c2ccc(-c3ncc(C(F)(F)F)[nH]3)cn2)c(F)c1F)C(=O)O [Example 75]
[2]
  inhibition in vivo at 5 mg/kg: 5%

## CC(C)(COc1ccc(-c2ccc(-c3ncc(C(F)(F)F)[nH]3)c(F)c2F)cn1)C(=O)O [Example 80]
[2]
  inhibition in vivo at 5 mg/kg: 41%

## CC(C)(COc1ccc(-c2ccc(-c3nc(C(F)(F)F)c[nH]3)cn2)cc1)C(=O)O [Example 94-3), 2,2-dimethyl-3-[4-[5-[4-(trifluoromethyl)-1H-imidazol-2-yl]-2-pyridyl]phenoxy]propanoic acid]
[1]; [6]
  Hypoglycemic action: 42%*
  Insulin in blood plasma-lowering action: 29%*

## Cc1cc(OCC2(C(=O)O)CC2)ncc1-c1ccc(-c2ncc(C(F)(F)F)[nH]2)c(Cl)c1 [Example 100-5), 1-{[(5-{3-chloro-4-[5-(trifluoromethyl)-1H-imidazol-2-yl]phenyl}-4-methylpyridin-2-yl)oxy]methyl}cyclopropanecarboxylic acid]
[2]
  inhibition in vivo at 5 mg/kg: 60%

## Cc1cc(OCC(C)(C)C(=O)O)ncc1-c1ccc(-c2ncc(CC(C)C)[nH]2)c(C)c1 [Example 103]
[2]
  inhibition in vivo at 5 mg/kg: 8%

## CC(C)(COc1ncc(-c2ccc(-c3ncc(C4(C(F)(F)F)CC4)[nH]3)cc2)cc1F)C(=O)O [Example 111]
[2]
  inhibition in vivo at 5 mg/kg: 41%

## CCC(CC)(COc1cc(C)c(-c2ccc(-c3ncc(C(F)(F)F)[nH]3)nc2)cn1)C(=O)O [Example 127]
[2]
  inhibition in vivo at 5 mg/kg: 44%

## COc1cc(-c2cnc(OCC(C)(C)C(=O)O)cc2C)ccc1-c1ncc(C(F)(F)F)[nH]1 [Example 129]
[2]
  inhibition in vivo at 5 mg/kg: 16%

## Cc1cc(OCC(C)(C)C(=O)O)ncc1-c1ccc(-c2ncc(C(F)(F)F)[nH]2)c(C2CC2)c1 [Example 131]
[2]
  inhibition in vivo at 5 mg/kg: 57%

## Cc1cc(OCC2(C(=O)O)CC2)ncc1-c1cnc(-c2ncc(C(F)(F)F)[nH]2)c(Cl)c1 [Example 139]
[2]
  inhibition in vivo at 5 mg/kg: 52%

## CC(C)(COc1ncc(-c2ccc(-c3ncc(C4(C(F)(F)F)CCC4)[nH]3)cc2)cc1F)C(=O)O [Example 144]
[2]
  inhibition in vivo at 5 mg/kg: 7%

## Cc1cc(-c2cnc(OCC(C)(C)C(=O)O)nc2)ccc1-c1ncc(C(F)(F)F)[nH]1 [Example 145]
[2]
  inhibition in vivo at 5 mg/kg: 43%
